# Measurements as given in ChEMBL document CHEMBL2062379, “Cleavage mechanism and anti-tumor activity of 3,6-epidioxy-1,10-bisaboladiene isolated from edible wild plants” (Bioorg Med Chem, 2012).
# pIC50: −log10 of the molar value. The source made the active and inactive calls. No cut-off for these calls is given here.
# Key:
# DMS-273 = test: Growth inhibition of human DMS273 cells; assay type: functional
# DMS-114 = test: Growth inhibition of human DMS114 cells; assay type: functional
# MKN-74 = test: Growth inhibition of human MKN74 cells; assay type: functional
# HL-60 [1] = test: Cytotoxicity against human HL60 cells after 48 hrs by MTT assay in absence of DFOM; assay type: functional, cell-based; settings: HL-60, 48 h
# SF-539 = test: Growth inhibition of human SF539 cells; assay type: functional
# U-251 = test: Growth inhibition of human U251 cells; assay type: functional
# HCC 2998 = test: Growth inhibition of human HCC2998 cells; assay type: functional
# DU-145 = test: Growth inhibition of human DU145 cells; assay type: functional
# SNB-75 = test: Growth inhibition of human SNB75 cells; assay type: functional
# HL-60 [2] = test: Induction of apoptosis in human HL60 cells assessed as DNA fragmentation after 24 hrs by Hoechst staining-based microscopic analysis preincubated with 5 uM JNK inhibitor SP600125; assay type: functional, cell-based
# OVCAR-8 = test: Growth inhibition of human OVCAR8 cells; assay type: functional
# MDA-MB-231 = test: Growth inhibition of human MDA-MB-231 cells; assay type: functional
# HL-60 [3] = test: Induction of apoptosis in human HL60 cells assessed as caspase 8 activation after 1 to 6 hrs by spectrophotometric analysis; assay type: functional, cell-based
# Saccharomyces cerevisiae [4] = test: Growth restoration activity in cdc2-1 rad9-deficient Saccharomyces cerevisiae assessed as growth zone at 4 ug/disc incubated at 37 degC for 6 hrs and 28 degC for 2 days; assay type: functional
# Saccharomyces cerevisiae [5] = test: Growth restoration activity in cdc2-1 rad9-deficient Saccharomyces cerevisiae assessed as growth zone incubated at 37 degC for 6 hrs and 28 degC for 2 days; assay type: functional, organism-based
# HL-60 [6] = test: Induction of apoptosis in human HL60 cells assessed as DNA fragmentation after 24 hrs by Hoechst staining-based microscopic analysis in presence of 10 mM hydrogen peroxide scavenger NAC; assay type: functional, cell-based
# [7] = Growth inhibition of human BSY1 cells; assay type: functional; settings: BSY-1
# HL-60 [8] = test: Induction of apoptosis in human HL60 cells assessed as DNA fragmentation after 24 hrs by Hoechst staining-based microscopic analysis preincubated with 20 uM p38 MAPK inhibitor SB203580; assay type: functional, cell-based
# St-4 = test: Growth inhibition of human St-4 cells; assay type: functional
# HL-60 [9] = test: Induction of apoptosis in human HL60 cells assessed as caspase 3/7 activation at 20 uM after 3 hrs by spectrophotometric analysis; assay type: functional, cell-based
# [10] = target: MAP kinase p38 (Homo sapiens) (UniProt O15264+Q15759+Q16539+P53778); test: Induction of p38 MAPK phosphorylation at T180/Y182 in human HL60 cells at 5 uM after 6 hrs by Western blot analysis; assay type: cell-based; settings: HL-60
# Saccharomyces cerevisiae [11] = test: Growth restoration activity in cdc2-1 rad9-deficient Saccharomyces cerevisiae assessed as growth zone at 2 ug/disc incubated at 37 degC for 6 hrs and 28 degC for 2 days; assay type: functional
compound,measurement,setting,value
CC(C)=CCCC(C)C12C=CC(C)(CC1)OO2 (configuration not stated),GI50,DMS-273,1.15 µM
same,GI50,DMS-114,10.7 µM
same,GI50,MKN-74,1.17 µM
same,pIC50,HL-60 [1],5.43
same,GI50,SF-539,2.57 µM
same,GI50,U-251,5.01 µM
same,GI50,HCC 2998,4.68 µM
same,GI50,DU-145,2.63 µM
same,GI50,SNB-75,1.32 µM
same,Activity,HL-60 [2],Active
same,GI50,OVCAR-8,12 µM
same,GI50,MDA-MB-231,11.7 µM
same,Activity,HL-60 [3],Dose-dependent effect
same,Activity,Saccharomyces cerevisiae [4],29 mm
same,Activity,Saccharomyces cerevisiae [5],Dose-dependent effect
same,Activity,HL-60 [6],Active
same,GI50,[7],2.95 µM
same,Activity,HL-60 [8],inactive
same,GI50,St-4,5.37 µM
same,Activity,HL-60 [9],Active
same,Activity,[10],Active
same,Activity,Saccharomyces cerevisiae [11],24.1 mm
